Results as given in patent publication US10780090B2, “Heteroaryl compounds useful as inhibitors of SUMO activating enzyme” (Millennium Pharmaceuticals, Inc., priority 2014, dated 2020).

Target: recombinant human SAE enzyme (Homo sapiens (Human), UniProt Q9UBT2)
Assay: SAE HTRF enzyme assay
Format: biochemical
Details: for Percent Inhibition: Concentration 0.111 μM; for IC50: class symbols A/B/C
How it was run: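 HTRF read-out using Eu-cryptate anti-Flag and allophycocyanin anti-GST antibodies, added with EDTA stop buffer and read after 2 h at 24 °C. The preceding reaction ran 105 min at 24 °C: 0.11 nM recombinant SAE, 0.5 μM ATP, Sumo-Flag, Ubc9-GST, pH 7.5. Values given as single-concentration inhibition or IC50.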

Chain of recombinant human SAE enzyme (Q9UBT2 whole entry): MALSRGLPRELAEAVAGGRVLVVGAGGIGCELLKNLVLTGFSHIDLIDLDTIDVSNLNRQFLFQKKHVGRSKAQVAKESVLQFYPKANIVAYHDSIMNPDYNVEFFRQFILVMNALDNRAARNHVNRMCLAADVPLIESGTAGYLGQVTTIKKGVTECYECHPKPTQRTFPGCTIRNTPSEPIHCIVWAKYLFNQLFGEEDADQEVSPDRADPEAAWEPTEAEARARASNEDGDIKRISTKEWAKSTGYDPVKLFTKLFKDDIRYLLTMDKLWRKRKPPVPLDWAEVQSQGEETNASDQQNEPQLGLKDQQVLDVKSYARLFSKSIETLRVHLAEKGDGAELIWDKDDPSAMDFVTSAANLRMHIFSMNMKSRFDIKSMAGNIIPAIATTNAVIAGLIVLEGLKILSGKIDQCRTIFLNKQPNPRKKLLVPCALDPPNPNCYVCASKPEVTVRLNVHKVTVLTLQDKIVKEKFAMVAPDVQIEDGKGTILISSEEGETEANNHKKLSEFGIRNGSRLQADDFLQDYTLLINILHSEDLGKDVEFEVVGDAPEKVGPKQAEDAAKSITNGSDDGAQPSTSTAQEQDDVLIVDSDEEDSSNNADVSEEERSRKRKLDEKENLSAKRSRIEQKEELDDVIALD
Chain of recombinant human SAE enzyme (Q9UBE0 whole entry partner): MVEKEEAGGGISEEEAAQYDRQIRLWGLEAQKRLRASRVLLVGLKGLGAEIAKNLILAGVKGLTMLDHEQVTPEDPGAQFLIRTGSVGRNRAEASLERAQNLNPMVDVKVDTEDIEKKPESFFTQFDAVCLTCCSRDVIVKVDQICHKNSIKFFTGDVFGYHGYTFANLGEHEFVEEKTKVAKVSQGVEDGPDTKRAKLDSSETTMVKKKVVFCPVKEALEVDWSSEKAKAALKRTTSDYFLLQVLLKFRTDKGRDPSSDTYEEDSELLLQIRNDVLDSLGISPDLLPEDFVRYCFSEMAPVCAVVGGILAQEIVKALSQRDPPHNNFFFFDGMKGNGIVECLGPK

| SMILES | Percent Inhibition | IC50 [nM] |
| --- | --- | --- |
| N[C@H](c1cccc(Br)c1)c1cc(C(=O)c2cncnc2N[C@@H]2C[C@H](COS(N)(=O)=O)[C@@H](O)[C@H]2O)sc1Cl (single isomer, unassigned) [I-24b, [(1R,2R,3S,4R)-4-{[5-({4-[(R)-amino(3-bromophenyl)methyl]-5-chloro-2-thienyl}carbonyl)pyrimidin-4-yl]amino}-2,3-dihydroxycyclopentyl]methyl sulfamate or [(1R,2R,3S,4R)-4-{[5-({4-[(S)-amino(3-bromophenyl)methyl]-5-chloro-2-thienyl}carbonyl)pyrimidin-4-yl]amino}-2,3-dihydroxycyclopentyl]methyl sulfamate] | 101 |  |
| N[C@H](c1cccc(Cl)n1)c1cc(C(=O)c2cncnc2N[C@@H]2C[C@H](COS(N)(=O)=O)[C@@H](O)C2)sc1Cl (single isomer, unassigned) [I-25a, [(1R,2S,4R)-4-{[5-({4-[(S)-amino(6-chloropyridin-2-yl)methyl]-5-chloro-2-thienyl}carbonyl)pyrimidin-4-yl]amino}-2-hydroxycyclopentyl]methyl sulfamate or [(1R,2S,4R)-4-{[5-({4-[(R)-amino(6-chloropyridin-2-yl)methyl]-5-chloro-2-thienyl}carbonyl)pyrimidin-4-yl]amino}-2-hydroxycyclopentyl]methyl sulfamate] | 97 | < 10 |
| N[C@H](c1cccc(Cl)n1)c1cc(C(=O)c2cncnc2N[C@@H]2C[C@H](COS(N)(=O)=O)[C@@H](O)C2)sc1Cl (single isomer, unassigned) [I-25b, [(1R,2S,4R)-4-{[5-({4-[(S)-amino(6-chloropyridin-2-yl)methyl]-5-chloro-2-thienyl}carbonyl)pyrimidin-4-yl]amino}-2-hydroxycyclopentyl]methyl sulfamate or [(1R,2S,4R)-4-{[5-({4-[(R)-amino(6-chloropyridin-2-yl)methyl]-5-chloro-2-thienyl}carbonyl)pyrimidin-4-yl]amino}-2-hydroxycyclopentyl]methyl sulfamate] | 99 | < 10 |
| C[C@](N)(c1cccc(Br)c1)c1csc(C(=O)c2cncnc2N[C@@H]2C[C@H](COS(N)(=O)=O)[C@@H](O)[C@H]2O)c1 (single isomer, unassigned) [I-27a, [(1R,2R,3S,4R)-4-{[5-({4-[(1S)-1-amino-1-(3-bromophenyl)ethyl]-2-thienyl}carbonyl)pyrimidin-4-yl]amino}-2,3-dihydroxycyclopentyl]methyl sulfamate or [(1R,2R,3S,4R)-4-{[5-({4-[(1R)-1-amino-1-(3-bromophenyl)ethyl]-2-thienyl}carbonyl)pyrimidin-4-yl]amino}-2,3-dihydroxycyclopentyl]methyl sulfamate] | 96 | < 10 |
| C[C@](N)(c1cccc(Br)c1)c1csc(C(=O)c2cncnc2N[C@@H]2C[C@H](COS(N)(=O)=O)[C@@H](O)[C@H]2O)c1 (single isomer, unassigned) [I-27b, [(1R,2R,3S,4R)-4-{[5-({4-[(1S)-1-amino-1-(3-bromophenyl)ethyl]-2-thienyl}carbonyl)pyrimidin-4-yl]amino}-2,3-dihydroxycyclopentyl]methyl sulfamate or [(1R,2R,3S,4R)-4-{[5-({4-[(1R)-1-amino-1-(3-bromophenyl)ethyl]-2-thienyl}carbonyl)pyrimidin-4-yl]amino}-2,3-dihydroxycyclopentyl]methyl sulfamate] | 101 | < 10 |
| Cc1sc(C(=O)c2cncnc2N[C@@H]2C[C@H](COS(N)(=O)=O)[C@@H](O)C2)cc1[S@+]([O-])c1cccc(Cl)c1 (single isomer, unassigned) [I-28a, [(1R,2S,4R)-4-{[5-({4-[(R)-(3-chlorophenyl)sulfinyl]-5-methyl-2-thienyl}carbonyl)pyrimidin-4-yl]amino}-2-hydroxycyclopentyl]methyl sulfamate or [(1R,2S,4R)-4-{[5-({4-[(S)-(3-chlorophenyl)sulfinyl]-5-methyl-2-thienyl}carbonyl)pyrimidin-4-yl]amino}-2-hydroxycyclopentyl]methyl sulfamate] | 66 | 10 to 100 |
